Results published in patent US20200054646A1, “USE OF PHENOTHIAZINE DERIVATIVE IN THE TREATMENT OF INFECTIOUS PURPURA OR PURPURA FULMINANS” (priority 2016, published 2020).

Key:
[1] = system: N. meningitidis 2C4.3 bacterial aggregates; assay: microbe, parasite or virus in culture; assay type: cell-based, Neisseria meningitidis; settings: for effect on dispersion of meningococcal aggregates (in words): 0.5 to 80 μM, 30 min; for Concentration promoting efficient meningococcal dispersal (~80%): 30 min treatment, 0.5 to 80 μM tested; for EC80: Neisseria meningitidis, 0.5 h, read-out: Concentration promoting efficient meningococcal dispersal (~80%)
Protocol: N. meningitidis 2C4.3 was grown in liquid culture at 10^7 CFU/ml for 2 h to form bacterial aggregates and were treated with increasing concentrations of Trifluoperazine (10 to 40 μM), Gentamicin (150 μg/ml) or cefotaxim (20 μg/ml) for 20 minutes and bacterial aggregates were immediately visualized using a phase-contrast microscope. […] (B) Quantification of the bacterial aggregation was performed using Image J software.
N. meningitidis 2C4.3 wild type strain and the isogenic derivative mutant PilT ([…]PilT) were grown in liquid culture at 10^7 CFU/ml for 2 h to form bacterial aggregates and then treated with 50 μM Trifluoperazine. Time lapse phase-contrast video microscopy was performed to visualize the effect on bacterial aggregates over time. Images were taken at the indicated time points of the video.
N. meningitidis 2C4.3 was grown in liquid culture at 10^7 CFU/ml for 2 h to form bacterial aggregates and were treated with 30 μM Trifluoperazine for 30 minutes to induce bacterial dispersion or PBS as a control. The medium was replaced to remove the Trifluoperazine and the reformation of bacterial aggregates were visualized overtime using a phase-contrast microscope.
FIG. 7. […] Bacteria were grown in suspension for 2 h then Phenothiazine derivatives were added at the indicated concentrations.
N. meninigitidis 2C4.3 strain was grown in suspension in wells of a 24 well plate, containing 1 ml of DMEM medium supplemented with 10% heat-inactivated fetal calf serum. After 2 h of growth, Trifluoperazine (or control vehicle) was added at various concentrations ranging from 10 to 40 μM for 20 min and the bacterial aggregates were visualized over time using a phase-contrast microscope.
N. meninigitidis 2C4.3 strain was grown in suspension in wells of a 24 well plate, containing 1 ml of DMEM medium supplemented with 10% heat-inactivated fetal calf serum. After 2 h of growth, various concentrations (0.5 to 80 μM) of phenothiazine-derivative compounds or control vehicle (PBS or DMSO) were added to the wells for 30 min and the bacterial aggregates were visualized using a phase-contrast microscope.
Were tested phenothiazine-derivative compounds of: • the Piperazine group: Trifluoperazine (Sigma #T8516), Fluphenazine (Sigma #F4765), Prochlorperazine (Sigma #P9178) Perphenazine (Sigma #P6402); • the Piperidine group: Thioridazine (Sigma #T9025) and Mesoridazin (Sigma #M4068); • the Aliphatic group: Chlorpromazine (Sigma #C8138), Promazine (Sigma #P6656), Triflupromazine (Sigma #1686003) and levomepromazine (Sigma #L0500000).

[2] = system: Nm2C4.3 microcolonies on HBMEC; assay: Dispersion of meningococcal microcolonies at the surface of infected human endothelial cells; assay type: cell-based, Neisseria meningitidis; settings: Cefotaxim 20 μg/ml
Protocol: Human […] microvascular endothelial cells (HBMEC) were infected with Nm2C4.3 for 1 h 30, treated with Trifluoperazine (10-40 μM) for 30 minutes, before fixation and immunofluorescence analysis using anti-Nm2C4.3 antibody and Alexa Fluor 633 Phalloidin. (A) Representative fluorescence microscopy showing bacterial colony (white dots) formed at the surface of the endothelial cells. (B) Quantification of the bacterial colonization was performed using Image J software.
HBMEC, a human endothelial cell line isolated from bone marrow capillaries (Schweitzer et al., 1997) were grown in Dulbecco's Modified Eagle Medium (DMEM) 4.5 g/L-Glutamax (ThermoFischer) 10% FBS. Cells were grown on Thermanox coverslips coated with gelatin 2% (BD Difco #214340) for 2 days to reach confluency. Cells were then infected with a suspension of Nm2C4.3 (˜10^7 CFU/ml) in DMEM/FBS during 30 minutes to allow bacterial adhesion. Cells were then washed three times with medium to remove non-adherent bacteria and infection was pursued for 1 h 30: adherent bacteria grew at the endothelial cell surface and formed micro-colonies. Trifluoperazine was then added to obtain final concentrations of 10, 20, 30 and 40 μM. After incubation for 30 minutes, cells were washed and fixed in 4% Paraformaldehyde for 10 min, washed three times with PBS, and permeabilized with 0.1% Triton X-100 in PBS for 10 min. Cells were blocked for 30 min with 3% BSA in PBS and were incubated for 2 h with the primary antibodies (Rabbit polyclonal anti-Nm2C4.3 strain, kindly provided by Dr X. Nassif, INEM, Paris). After three washes with PBS, cells were incubated for 1 h with […] anti-rabbit IgG (Jackson ImmunoResearch Laboratories), together with Alexa Fluor 633 Phalloidin (Thermofischer) and DAPI (0.5 mg ml-1, Sigma Aldrich) to stain Actin and nuclei, respectively. Labelled preparations were mounted in Glycergel media (DAKO) and image acquisitions were performed with a DM16000 microscope (Leica, X40). Quantification was done with ImageJ software (NIH). Results are presented as a vascular colonisation index corresponding to the area occupied by the fluorescently labelled bacteria per fields in relation to the area occupied by the fluorescently labelled human endothelial cells (Actin staining). Statistical analysis were performed with Student t test.

[3] = system: meningococcal colonization of the human dermal vasculature; assay: In vivo infection of mice engrafted with human skin; settings: cefotaxime treatment

Row | Compound | effect on dispersion of meningococcal aggregates (in words) [1] | Concentration promoting efficient meningococcal dispersal (~80%) [1] | EC80 [1] | further results
1 | CN(C)CCCN1c2ccccc2Sc2ccc(C(F)(F)F)cc21 [Triflupromazine] | no effects | No effect | – | –
2 | CSc1ccc2c(c1)N(CCC1CCCCN1C)c1ccccc1S2 (stereo not shown) [Thioridazine] | – | – | 4 µM | –
3 | CO/N=C(\C(=O)N[C@@H]1C(=O)N2C(C(=O)O)=C(COC(C)=O)CS[C@H]12)c1csc(N)n1 [Cefotaxim] | – | – | – | dispersion of microcolonies at the endothelial cell surface [2]: poorly induced the dispersion; increase of inflammatory response [3]: 2 fold; dispersion of bacterial aggregates formed in suspension ([1]; Cefotaxim 20 μg/ml, 20 minutes): did not significantly induce the dispersion
4 | CN1CCCCC1CCN1c2ccccc2Sc2ccc([S+](C)[O-])cc21 (stereo not shown) [Mesoridazine] | – | – | 6 µM | –
5 | CN1CCN(CCCN2c3ccccc3Sc3ccc(Cl)cc32)CC1 [Prochlorperazine] | – | – | 30 µM | –
6 | CN(C)CCCN1c2ccccc2Sc2ccccc21 [Promazine] | inhibited bacterial aggregation with better efficacy than Trifluoperazine | – | 10 µM | –
7 | COc1ccc2c(c1)N(C[C@H](C)CN(C)C)c1ccccc1S2 [Levomepromazine] | no effects | No effect | – | –
8 | OCCN1CCN(CCCN2c3ccccc3Sc3ccc(Cl)cc32)CC1 [Perphenazine] | – | – | 40 µM | –
9 | OCCN1CCN(CCCN2c3ccccc3Sc3ccc(C(F)(F)F)cc32)CC1 [Fluphenazine] | – | – | 40 µM | –
10 | CN(C)CCCN1c2ccccc2Sc2ccc(Cl)cc21 [Chlorpromazine] | no effects | No effect | – | –
